Data from PMC3169406, “Structure of a cyclin-dependent kinase from Giardia lamblia” (Acta Crystallographica Section F: Structural Biology and …, 2011).

Biological target: T1, GlCDK (cyclin-dependent kinase from G. lamblia) (Giardia duodenalis, UniProt A8BZ95)
T1 construct: gene GL50803_008037; monomer in asymmetric unit; residues Ser11-Pro308 observed
T1 sequence (A8BZ95 1-308): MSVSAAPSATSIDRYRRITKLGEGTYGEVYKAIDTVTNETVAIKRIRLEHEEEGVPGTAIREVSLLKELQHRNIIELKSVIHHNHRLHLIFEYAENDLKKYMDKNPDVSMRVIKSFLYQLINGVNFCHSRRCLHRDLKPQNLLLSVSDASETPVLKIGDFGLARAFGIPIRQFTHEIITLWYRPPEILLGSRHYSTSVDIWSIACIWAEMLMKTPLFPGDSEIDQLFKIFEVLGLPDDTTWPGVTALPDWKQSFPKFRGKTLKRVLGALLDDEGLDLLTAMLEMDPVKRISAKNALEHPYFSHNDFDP
Assay: X-ray crystal structure, […] A, crystal soak
Settings: 1 mM AMP, 1 mM MgCl2, overnight soak; 200 mM sodium/potassium tartrate, 100 mM Bis-Tris propane, 25% PEG 3350; no cyclin; ATP-binding site

Nc1ncnc2c1ncn2[C@@H]1O[C@H](COP(=O)(O)O)[C@@H](O)[C@H]1O [AMP, adenosine monophosphate]
X-ray crystal structure, 2.0 A, crystal soak: Good OMIT density was observed for one AMP molecule
